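All cell lines were grown in 96-well plates and treated with compound for 48 hours. TGI denotes the concentration required for complete inhibition of growth.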 Where only a bound is given, the exact number is not on record here.

Holding throughout (test): NCI tumour cell line growth inhibition, 48 h
For assay [1], the system named is OVCAR-5 ovarian.
Assay [2] has as its system LOX IMVI melanoma.
The test system of assay [3] is MDA-N.
For assay [4], the system named is SR leukemia.
Assay [5] has as its system MOLT-4 leukemia.
In assay [6] the test system is MDA-MB-435.
For assay [7], the system named is IGROV1 ovarian.
For assay [8], the system named is SN12C renal.
Assay [9] has as its system MDA-MB-231 breast.
The test system of assay [10] is NCI-H226 lung.

Turning to `CC(=O)Oc1ccc(/C=C/C(=O)O[C@@H](C)[C@H](C)OC(=O)/C=C/c2ccc(OC(C)=O)c(OC(C)=O)c2)cc1OC(C)=O`, the TGI in assay [1] was 58.8 µM; in [2] it was 29 µM; in assay [3], 89.4 µM; in assay [4] it was > 100 µM; in [5] it was > 100 µM; in assay [6], > 100 µM. The TGI in [7], in [8] and in assay [9] was > 100 µM throughout.

As to `CCOC(=O)/C(=C\NCC(O)c1ccccc1)c1nc2ccccc2[nH]1` (centres undefined), the TGI stood at 83.8 µM in assay [1]; 37.7 µM in [2]; 82.7 µM in [3]; 42.7 µM in assay [4]; 34.3 µM in assay [5]; 51.8 µM in assay [6]. The TGI in assay [7] was 57.4 µM; in assay [8] it was > 100 µM.

With `CC(C)CCCC(C)[C@H]1CCC2[C@@H]3CCC4Cc5nc6c(nc5C[C@]4(C)C3CC[C@@]21C)CC1CC[C@@H]2C(C[C@@H](O)[C@@]3(C)C2C[C@@H]2OC4(CCC(C)CO4)C(C)[C@@H]23)[C@@]1(C)C6` (some centres undefined), the TGI in [1], in assay [3], in assay [4], in [5], in assay [6] and in assay [7] was > 100 µM throughout. Besides, the TGI in assay [8], in assay [10] and in [9] was > 100 µM each time.

On to `CSc1nc(NC2CCCC2)c2cc[nH]c2n1`, for which the TGI in [2] was > 100 µM; in assay [3] it was > 100 µM; in [4] it was 61.6 µM; in assay [5], > 100 µM; in assay [6] it was > 100 µM; in assay [7], > 100 µM. Further, the TGI in [8], in assay [10] and in assay [9] was > 100 µM each time.

With `Oc1ccc(Cl)cc1C1=N/C(=N\CN2CCN(C/N=C3/N=C(c4cc(Cl)ccc4O)CC(c4ccccc4)N3)CC2)NC(c2ccccc2)C1` (centres undefined), the TGI in assay [1], in [2], in assay [3], in assay [4], in assay [6] and in assay [7] was > 100 µM each time. The TGI is 64.3 µM in assay [8], > 100 µM in assay [10] and > 100 µM in assay [9].

With `CN(C)C(=S)N/N=C\C=N/NC(=S)N(C)C`, the TGI in assay [1] is > 100 µM; in [2], > 100 µM; in assay [3] it was > 100 µM; in assay [6], > 100 µM; in assay [7], > 100 µM; in assay [8] it was 11.1 µM. Besides, the TGI in assay [10] was > 81.9 µM; in assay [9], > 100 µM.

Consider `Cc1ccc(F)cc1NC(=O)O/N=C(\Cl)C(C)C`, for which the TGI stood at 31.7 µM in [1]; 4.79 µM in [2]; 11.8 µM in [3]; 4.83 µM in assay [5]; 32.2 µM in assay [6]; 33.6 µM in assay [7]. The TGI in [8] was 11.4 µM; in assay [10], 28.5 µM; in assay [9] it was 32.8 µM.

Regarding `CC(C)/C(Cl)=N/OC(=O)Nc1ccc(F)c(Cl)c1`, the TGI in assay [1] amounted to 34.6 µM; in [2], 3.59 µM; in assay [3], 14.8 µM; in assay [5], 4.72 µM; in assay [6], 23.4 µM; in [7] it was 28.4 µM. In addition, the TGI in assay [8] came to 3.21 µM; in assay [10], 30.9 µM; in assay [9], 30.7 µM.

As for `CCOC(C[Se]CC(OCC)OCC)OCC`, the TGI was > 100 µM in assay [1]; 59.4 µM in [2]; > 100 µM in [3]; > 100 µM in assay [4]; > 100 µM in [5]; > 100 µM in [6]. Moreover, the TGI in assay [7] was 93.2 µM; in assay [10], 46.4 µM; in assay [9], > 100 µM.

As to `N#CC1=C2Sc3ccccc3N2[C@H](c2ccccc2)[C@H]2COC(=O)[C@@H]12`, the TGI was > 100 µM in assay [1]; 91.6 µM in assay [2]; > 100 µM in [3]; > 100 µM in [5]; > 100 µM in assay [6]; > 100 µM in [10]. In [9], the TGI is > 100 µM.

Consider `COc1ccc(CCn2cnc3ccccc32)cc1`, for which the TGI in [1], in [3], in assay [4], in assay [5], in assay [6] and in assay [7] was > 100 µM in each case. The TGI in [8], in assay [10] and in assay [9] was > 100 µM throughout.

With `COc1ccc(N[C@H](CS(=O)c2ccc(C)cc2)c2ccc(F)cc2)cc1` (some centres undefined), the TGI in [1] was > 100 µM; in [2] it was > 100 µM; in [3], > 100 µM; in assay [5] it was > 100 µM; in [6], > 100 µM; in assay [7] it was 47.4 µM. The TGI in assay [8] and in assay [9] was > 100 µM in each case.

`O=C(NCCN(CCNC(=O)c1cccc(=O)n1O)CCN(CCNC(=O)c1cccc(=O)n1O)CCNC(=O)c1cccc(=O)n1O)c1cccc(=O)n1O`: the TGI in assay [1], in assay [2], in assay [3], in [6], in [7] and in [8] was > 100 µM in each case. Further, the TGI in assay [10] and in assay [9] was > 100 µM in each case.

Regarding `CC1(C)OC2OC(COC(=O)C=[N+]=[N-])C3OC(C)(C)OC3C2O1` (centres undefined), the TGI in assay [1], in assay [2], in [3], in assay [4], in assay [6] and in assay [7] was > 100 µM each time. Moreover, the TGI in assay [8], in [10] and in assay [9] was > 100 µM each time.

Take `CCC(CCCN)Nc1cc(OC)cc2cccnc12` (centres undefined): the TGI in assay [1], in [2], in [3], in [4], in assay [6] and in assay [7] was > 100 µM each time. Further, the TGI in [8], in [10] and in assay [9] was > 100 µM in each case.

The record behind these values is PubChem BioAssay (NCI).
